Measured values published in BindingDB's records for doi:10.1016/S0960-894X(96)00563-X (1996).

Molecular target: Tachykinin NK1 receptor (Bos taurus)
Assay: Binding affinity against NK1 receptor by displacement of [3H]SP from bovine retina membranes

SMILES	IC50 [nM]
Cc1cc(C)cc(C(=O)N2CC[C@H](NCc3ccnc4ccccc34)C[C@H]2Cc2ccc(C(N)=O)cc2)c1 [4-{(2R,4S)-1-(3,5-Dimethyl-benzoyl)-4-[(quinolin-4-ylmethyl)-amino]-piperidin-2-ylmethyl}-benzamide]	100
Cc1cc(C)cc(C(=O)N2CC[C@H](NCc3ccnc4ccccc34)C[C@H]2Cc2ccc(C#N)cc2)c1 [4-{(2R,4S)-1-(3,5-Dimethyl-benzoyl)-4-[(quinolin-4-ylmethyl)-amino]-piperidin-2-ylmethyl}-benzonitrile]	21
Cc1cc(C)cc(C(=O)N2CC[C@H](NCc3ccnc4ccccc34)C[C@H]2Cc2ccc(C(F)(F)F)cc2)c1 [(3,5-Dimethyl-phenyl)-[(2R,4S)-4-[(quinolin-4-ylmethyl)-amino]-2-(4-trifluoromethyl-benzyl)-piperidin-1-yl]-methanone]	11
COc1cccc(C[C@@H]2C[C@@H](NCc3ccnc4ccccc34)CCN2C(=O)c2cc(C)cc(C)c2)c1 [(3,5-Dimethyl-phenyl)-{(2R,4S)-2-(3-methoxy-benzyl)-4-[(quinolin-4-ylmethyl)-amino]-piperidin-1-yl}-methanone]	27
COc1ccc(C[C@@H]2C[C@@H](NCc3ccnc4ccccc34)CCN2C(=O)c2cc(C)cc(C)c2)cc1 [(3,5-Dimethyl-phenyl)-{(2R,4S)-2-(4-methoxy-benzyl)-4-[(quinolin-4-ylmethyl)-amino]-piperidin-1-yl}-methanone]	14
Cc1cc(C)cc(C(=O)N2CC[C@H](NCc3ccnc4ccccc34)C[C@H]2Cc2ccc([N+](=O)[O-])cc2)c1 [(3,5-Dimethyl-phenyl)-{(2R,4S)-2-(4-nitro-benzyl)-4-[(quinolin-4-ylmethyl)-amino]-piperidin-1-yl}-methanone]	3
Cc1cc(C)cc(C(=O)N2CC[C@H](NCc3ccnc4ccccc34)C[C@H]2Cc2ccc3ccccc3c2)c1 [(3,5-Dimethyl-phenyl)-{(2R,4S)-2-naphthalen-2-ylmethyl-4-[(quinolin-4-ylmethyl)-amino]-piperidin-1-yl}-methanone]	14
Cc1cc(C)cc(C(=O)N2CC[C@H](NCc3ccnc4ccccc34)C[C@H]2CCc2ccccc2)c1 [(3,5-Dimethyl-phenyl)-{(2R,4S)-2-phenethyl-4-[(quinolin-4-ylmethyl)-amino]-piperidin-1-yl}-methanone]	190
Cc1cc(C)cc(C(=O)N2CC[C@H](NCc3ccnc4ccccc34)C[C@H]2Cc2ccc(Cl)cc2Cl)c1 [{(2R,4S)-2-(2,4-Dichloro-benzyl)-4-[(quinolin-4-ylmethyl)-amino]-piperidin-1-yl}-(3,5-dimethyl-phenyl)-methanone]	600
Cc1cc(C)cc(C(=O)N2CC[C@H](NCc3ccnc4ccccc34)C[C@H]2Cc2ccc(Cl)c(Cl)c2)c1 [{(2R,4S)-2-(3,4-Dichloro-benzyl)-4-[(quinolin-4-ylmethyl)-amino]-piperidin-1-yl}-(3,5-dimethyl-phenyl)-methanone]	9
Cc1cc(C)cc(C(=O)N2CC[C@H](NCc3ccnc4ccccc34)C[C@H]2Cc2cc(Br)cc(Br)c2)c1 [{(2R,4S)-2-(3,5-Dibromo-benzyl)-4-[(quinolin-4-ylmethyl)-amino]-piperidin-1-yl}-(3,5-dimethyl-phenyl)-methanone]	52
Cc1cc(C)cc(C(=O)N2CC[C@H](NCc3ccnc4ccccc34)C[C@H]2Cc2ccc(Cl)cc2)c1 [{(2R,4S)-2-(4-Chloro-benzyl)-4-[(quinolin-4-ylmethyl)-amino]-piperidin-1-yl}-(3,5-dimethyl-phenyl)-methanone]	13
